# From PubChem BioAssay (NCI)
#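 Five concentrations, 48 hours, 96-well plates. Here, GI50 denotes the concentration required for 50% inhibition of growth. Definition used: TGI = concentration required for complete inhibition of growth.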 The source made the active and inactive calls. No stated cut-off is given here; in the data, active means GI50 below about 0.43 µM; inactive means the rest.
# System: DMS 114 small cell lung
# Assay: growth of human tumour cells (NCI), 48 h
Structure (SMILES),TGI,GI50
Cc1ccc2c(c1)CN(C(=O)CCC(=O)OCc1ccccc1)c1ccc(C)cc1CN2C(=O)CCC(=O)OCc1ccccc1,> 100 µM,–
O=c1[nH]c(=O)n(C2OC(CO)C(O)C(O)C2O)cc1F (stereo not drawn),> 100 µM,–
c1cc[c]([Pb]([c]2ccccc2)[c]2ccccc2)cc1,12.7 µM,1.92 µM
CC(=O)N1C/C(=C\c2ccc(N(C)C)cc2)C(=O)/C(=C/c2ccc(N(C)C)cc2)C1,60.1 µM,–
COC1=CC2(C=CC1=O)c1cc(OC)c(OC)cc1CCN2C(=O)c1ccccc1 (stereo not drawn),> 100 µM,–
Cc1[nH]c2ccccc2c1C1Cc2ccccc2N1C(=O)/C(Cl)=C/c1ccccc1 (stereo not drawn),> 100 µM,–

# System: XF 498 CNS
# Assay: growth of human tumour cells (NCI), 48 h
Structure (SMILES),TGI,outcome,GI50
COc1ccc(/C(Cl)=C(\C=O)c2ccc([N+](=O)[O-])cc2)cc1,40.4 µM,–,–
O=C(/C=C/c1c(O)ccc2ccccc12)c1ccccc1,> 100 µM,–,–
Clc1ccc(-c2c(C3=NCCCN3)nnn2-c2ccc(Cl)cc2)cc1,53.5 µM,–,–
Fc1ccc(C2SCc3nc4ccccc4n32)cc1Cl (stereo not drawn),31.7 µM,–,–
CC(C)N1CN(C(C(=O)N[C@@H]2C(=O)N3C2SC(C)(C)C3C(=O)O)c2ccccc2)CSC1=S (stereo partly drawn),> 100 µM,–,–
CC(C)c1cc2c(O)c(c1)Cc1cc(C(C)C)cc(c1O)Cc1cc(C(C)C)cc(c1O)Cc1cc(C(C)C)cc(c1O)C2,> 100 µM,–,–
COc1ccc(/C=C\c2cc(OC)c(OC)c(OC)c2)cc1OC(=O)NCCN(C)C,< 0.0001 µM,–,–
CCCCOC(=O)NC(=O)c1cn(C2CCCCC2)c(=O)[nH]c1=O,> 100 µM,–,–
CCOC(=O)CCn1[nH]c(=O)c(Cl)c(Cl)c1=O,> 100 µM,–,–
Nc1ncn(C2CC(O)C(CO)O2)c(=O)n1 (stereo not drawn),> 80.8 µM,–,–
COc1ccc(CNc2nc3cc(C(F)(F)F)ccc3nc2C)cc1OC,> 100 µM,–,–
C/C=C1/C(=C/c2[nH]c(/C=c3\[nH]/c(=C/C4=NC(=O)C(CC)=C4C)c(C)c3CCC(=O)O)c(CCC(=O)O)c2C)NC(=O)C1C (stereo not drawn),–,inactive,–
COc1cccc(/C=C2\C(=O)N(C(=O)c3ccc(NC(C)=O)cc3)N=C2C)c1,> 100 µM,–,–
COC(C(O)c1ccc2c(c1)OCO2)P(=O)(c1ccccc1)c1ccccc1 (stereo not drawn),> 100 µM,–,–
CC(C)c1ccc(C(c2ccc(OCC(=O)O)cc2)c2ccc(C(C)C)cc(=O)c2O)c(O)c(=O)c1,9.95 µM,–,–
N#C/C(=C\c1cc2ccccc2c2ccccc12)c1ccccc1,12.5 µM,–,–
CCOc1ccc2c(c1)[n+]([O-])c(-c1nc3ccccc3s1)c(N)[n+]2[O-],86.6 µM,–,–
COc1ccc2c3c(coc13)C(CCC(=O)O)CC2 (stereo not drawn),> 100 µM,–,–
CS(=O)(=O)c1cc(=O)c2ccccc2s1,4.4 µM,–,–
O=c1[nH]c(=O)n(C2OC(CO)C(O)C(O)C2O)cc1F (stereo not drawn),> 100 µM,–,–
c1cc[c]([Pb]([c]2ccccc2)[c]2ccccc2)cc1,42.7 µM,–,23.9 µM
CC(=O)N1C/C(=C\c2ccc(N(C)C)cc2)C(=O)/C(=C/c2ccc(N(C)C)cc2)C1,> 100 µM,–,–
Cc1[nH]c2ccccc2c1C1Cc2ccccc2N1C(=O)/C(Cl)=C/c1ccccc1 (stereo not drawn),> 100 µM,–,–

# System: SNB-78 CNS
# Assay: growth of human tumour cells (NCI), 48 h
Structure (SMILES),TGI,GI50
COc1ccc(/C(Cl)=C(\C=O)c2ccc([N+](=O)[O-])cc2)cc1,50.1 µM,–
Cc1ccc(-c2cc(=O)c3cc(C)c(C)c(C(=O)O)c3o2)cc1C,> 100 µM,–
O=C(/C=C/c1c(O)ccc2ccccc12)c1ccccc1,> 100 µM,–
Cc1nc2ccccc2c(=O)n1-c1ccccc1F,> 100 µM,–
Clc1ccc(-c2c(C3=NCCCN3)nnn2-c2ccc(Cl)cc2)cc1,> 100 µM,–
Fc1ccc(C2SCc3nc4ccccc4n32)cc1Cl (stereo not drawn),> 100 µM,–
CC1=N/C(=C\c2cccc([N+](=O)[O-])c2)C(=O)O1,> 100 µM,–
CC(C)N1CN(C(C(=O)N[C@@H]2C(=O)N3C2SC(C)(C)C3C(=O)O)c2ccccc2)CSC1=S (stereo partly drawn),> 100 µM,–
CC(C)c1cc2c(O)c(c1)Cc1cc(C(C)C)cc(c1O)Cc1cc(C(C)C)cc(c1O)Cc1cc(C(C)C)cc(c1O)C2,> 100 µM,–
CCCCOC(=O)NC(=O)c1cn(C2CCCCC2)c(=O)[nH]c1=O,> 100 µM,–
COc1cc2c(c(OC)c1)C1(CC(CC#N)C2)SCCS1 (stereo not drawn),> 100 µM,–
CCOC(=O)CCn1[nH]c(=O)c(Cl)c(Cl)c1=O,> 100 µM,–
Nc1ncn(C2CC(O)C(CO)O2)c(=O)n1 (stereo not drawn),> 375 µM,–
COc1ccc(CNc2nc3cc(C(F)(F)F)ccc3nc2C)cc1OC,55.8 µM,–
C/C=C1/C(=C/c2[nH]c(/C=c3\[nH]/c(=C/C4=NC(=O)C(CC)=C4C)c(C)c3CCC(=O)O)c(CCC(=O)O)c2C)NC(=O)C1C (stereo not drawn),> 150 µg/mL,> 150 µg/mL
COc1cccc(/C=C2\C(=O)N(C(=O)c3ccc(NC(C)=O)cc3)N=C2C)c1,> 100 µM,–
N#CCc1ccc(C(C#N)/C(CCCC(=O)Nc2cccc([N+](=O)[O-])c2)=N/NC(N)=S)cc1 (stereo not drawn),> 100 µM,–
COC(C(O)c1ccc2c(c1)OCO2)P(=O)(c1ccccc1)c1ccccc1 (stereo not drawn),> 100 µM,–
CC(C)c1ccc(C(c2ccc(OCC(=O)O)cc2)c2ccc(C(C)C)cc(=O)c2O)c(O)c(=O)c1,56.7 µM,–
N#C/C(=C\c1cc2ccccc2c2ccccc12)c1ccccc1,34.2 µM,–
CCOc1ccc2c(c1)[n+]([O-])c(-c1nc3ccccc3s1)c(N)[n+]2[O-],> 100 µM,–
